Key:
Format in all cases: biochemical
[1] = target: T1, AtcTPI (Arabidopsis thaliana, UniProt P48491); assay: residual activity after […] h incubation with reagent, coupled assay; conditions: read-out: concentration giving 50% of original activity
T1 construct: gene CTIMC; cytosolic isoform, purified dimer; expression not described here

[2] = target: T2, SyTPI (Synechocystis sp. PCC 6803, UniProt Q59994); assay: as above; conditions: read-out: % activity at 0.5 mM
T2 construct: gene tpiA; full length, codon-optimised, E. coli BL21(DE3) delta-tpi; His tag cut by PreScission, extra Gly-Pro-His before Met1; homodimer 54 kDa

[3] = target: T3, AtpdTPI (Arabidopsis thaliana, UniProt Q9SKP6); assay: as above; conditions: read-out: concentration giving 50% of original activity
T3 construct: gene TIM; expression not described here

[4] = target: T4, HsTPI (Homo sapiens, UniProt P60174, L109T/S106T/V102Y); assay: activity with / without ornidazole after […] h
T4 construct: gene TPI1; source and expression not described; dimer

[5] = target: T2, SyTPI; assay: residual activity after […] min incubation, coupled assay
[6] = target: T5, HsTPI (Homo sapiens, UniProt P60174); assay: as above
T5 construct: gene TPI1; source and expression not described; dimer
T5 sequence (P60174 2-249): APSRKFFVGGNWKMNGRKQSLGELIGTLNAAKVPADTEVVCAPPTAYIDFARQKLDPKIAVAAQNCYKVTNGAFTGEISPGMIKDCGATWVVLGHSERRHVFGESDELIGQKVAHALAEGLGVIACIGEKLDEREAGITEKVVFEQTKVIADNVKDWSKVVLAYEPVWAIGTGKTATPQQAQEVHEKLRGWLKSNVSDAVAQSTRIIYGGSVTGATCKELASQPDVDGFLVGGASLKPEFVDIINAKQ

T2 sequence (Q59994 whole entry): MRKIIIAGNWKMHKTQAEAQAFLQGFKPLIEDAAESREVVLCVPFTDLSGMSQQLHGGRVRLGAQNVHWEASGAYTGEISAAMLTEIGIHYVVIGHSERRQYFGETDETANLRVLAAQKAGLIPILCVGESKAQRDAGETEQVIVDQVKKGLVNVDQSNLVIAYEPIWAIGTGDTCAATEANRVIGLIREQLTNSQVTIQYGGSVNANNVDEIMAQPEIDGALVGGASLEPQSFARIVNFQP
T3 sequence (Q9SKP6 60-315 limits assumed): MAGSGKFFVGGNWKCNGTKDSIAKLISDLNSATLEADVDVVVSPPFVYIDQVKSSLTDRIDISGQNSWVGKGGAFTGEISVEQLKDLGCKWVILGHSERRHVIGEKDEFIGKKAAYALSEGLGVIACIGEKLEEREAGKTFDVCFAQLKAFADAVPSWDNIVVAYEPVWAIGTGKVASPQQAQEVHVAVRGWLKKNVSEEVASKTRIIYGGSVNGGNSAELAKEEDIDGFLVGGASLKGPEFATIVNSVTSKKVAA
T4 sequence (P60174 2-249 V102Y/S106T/L109T): as the sequence (P60174 2-249) above, with V101Y, S105T, L108T counted along it
T1 sequence (P48491 whole entry, canonical isoform): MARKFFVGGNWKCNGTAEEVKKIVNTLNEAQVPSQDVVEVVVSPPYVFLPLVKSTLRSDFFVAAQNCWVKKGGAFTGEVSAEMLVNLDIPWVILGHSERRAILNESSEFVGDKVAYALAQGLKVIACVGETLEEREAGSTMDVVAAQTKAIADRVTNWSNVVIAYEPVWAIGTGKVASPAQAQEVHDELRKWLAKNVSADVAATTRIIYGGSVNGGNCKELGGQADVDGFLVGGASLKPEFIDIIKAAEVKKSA

IC50 [1] [µM] | activity at 500 µM [2] [%] | IC50 [3] [µM] | activity at 50 µM [4] [%] | inhibition at 50 µM [5] [%] | activity at 50 µM [6] [%] | Compound
0.005 | 50 | 18 | – | – | – | CSS(C)(=O)=O [S-methyl methanethiosulfonate]
– | – | – | ~60 | ~80 | 90 | Cc1ncc([N+](=O)[O-])n1CC(O)CCl (stereo not drawn) [ornidazole]

Reference: publication PMC6277545, “Structural Basis for the Limited Response to Oxidative and Thiol-Conjugating Agents by Triosephosphate Isomerase From the Photosynthetic Bacteria Synechocystis” (Frontiers in Molecular Biosciences, 2018)
